What was measured:
[1] = Microsomal stability, human liver microsomes (predicted hepatic clearance); conditions: predicted from in vitro microsomal stability data
[2] = target: GLP-1R (Homo sapiens, UniProt P43220); test: GLP-1R activation: cAMP increase in CHO cells stably expressing GLP-1R; type: cell-based; conditions: cAMP increase, CHO cells stably expressing GLP-1R, 10 point dose response, 30 minutes incubation; read-out: EC50
GLP-1R, sequence (P43220 24-463): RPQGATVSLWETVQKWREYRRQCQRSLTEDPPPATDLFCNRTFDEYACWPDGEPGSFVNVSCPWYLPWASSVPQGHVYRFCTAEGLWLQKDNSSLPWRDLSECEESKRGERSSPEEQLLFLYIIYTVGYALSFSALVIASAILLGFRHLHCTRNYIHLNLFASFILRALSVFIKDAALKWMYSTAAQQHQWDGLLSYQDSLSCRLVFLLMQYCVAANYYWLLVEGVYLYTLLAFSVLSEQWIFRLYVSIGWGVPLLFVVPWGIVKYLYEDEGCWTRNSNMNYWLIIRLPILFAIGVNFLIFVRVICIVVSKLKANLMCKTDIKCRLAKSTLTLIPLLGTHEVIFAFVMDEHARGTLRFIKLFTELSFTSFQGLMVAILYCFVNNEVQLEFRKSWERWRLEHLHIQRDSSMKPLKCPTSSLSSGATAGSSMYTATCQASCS

Row | SMILES | Predicted Hepatic Clearance (Pred. Cl.) [1] [mL/min/kg] | EC50 [2] [nM]
1 | N#Cc1ccc(COc2cccc(-c3ccc(Cc4nc5ccc(C(=O)O)cc5n4C4CCC4)c(F)c3)n2)c(F)c1 [Example 223, 2-(4-(6-((4-cyano-2-fluorobenzyl)oxy)pyridin-2-yl)-2-fluorobenzyl)-1-cyclobutyl-1H-benzo[d]imidazole-6-carboxylic acid] | 3.5 | 16.4
2 | N#Cc1ccc(COc2cccc(-c3ccc(Cc4nc5cccc(C(=O)O)c5n4CC4(CF)CC4)c(F)c3)n2)c(F)c1 [Example 224, 2-(4-(6-((4-cyano-2-fluorobenzyl)oxy)pyridin-2-yl)-2-fluorobenzyl)-1-((1-(fluoromethyl)cyclopropyl)methyl)-1H-benzo[d]imidazole-7-carboxylic acid] | 7.5 | 23.6
3 | N#Cc1ccc(COc2cccc(-c3ccc(Cc4nc5ccc(C(=O)O)cc5n4[C@@H]4CCOC4)c(F)c3)n2)c(F)c1 [Example 225, (R)-2-(4-(6-((4-cyano-2-fluorobenzyl)oxy)pyridin-2-yl)-2-fluorobenzyl)-1-(tetrahydrofuran-3-yl)-1H-benzo[d]imidazole-6-carboxylic acid] | 3.5 | 13.1
4 | Cn1nnc(Cn2c(Cc3ccc(-c4cccc(OCc5ccc(C#N)cc5F)n4)cc3F)nc3ccc(C(=O)O)cc32)n1 [Example 226, 2-(4-(6-((4-cyano-2-fluorobenzyl)oxy)pyridin-2-yl)-2-fluorobenzyl)-1-((2-methyl-2H-tetrazol-5-yl)methyl)-1H-benzo[d]imidazole-6-carboxylic acid] | 3.67 | 139
5 | COCCn1c(Cc2ccc(-c3cccc(OCc4ccc(C#N)cc4F)n3)cc2C#CC2CC(F)(F)C2)nc2ccc(C(=O)O)cc21 [Example 228, 2-(4-(6-((4-cyano-2-fluorobenzyl)oxy)pyridin-2-yl)-2-((3,3-difluorocyclobutyl)ethynyl)benzyl)-1-(2-methoxyethyl)-1H-benzo[d]imidazole-6-carboxylic acid] | 4.83 | 4.87
6 | COCCn1c(Cc2ccc(-c3cccc(OCc4ccc(CC#N)cc4)n3)cc2F)nc2ccc(C(=O)O)cc21 [Example 229, 2-(4-(6-((4-(cyanomethyl)benzyl)oxy)pyridin-2-yl)-2-fluorobenzyl)-1-(2-methoxyethyl)-1H-benzo[d]imidazole-6-carboxylic acid] | 8.67 | 35.4
7 | COCCOCCn1c(Cc2ccc(-c3cccc(OCc4ccc(C#N)cc4F)n3)cc2F)nc2ccc(C(=O)O)cc21 [Example 230, 2-(4-(6-((4-cyano-2-fluorobenzyl)oxy)pyridin-2-yl)-2-fluorobenzyl)-1-(2-(2-methoxyethoxy)ethyl)-1H-benzo[d]imidazole-6-carboxylic acid] | 12 | 27.4
8 | N#Cc1ccc(COc2cccc(-c3ccc(Cc4nc5ccc(C(=O)O)cc5n4CC45CCC(CC4)O5)c(F)c3)n2)c(F)c1 [Example 231, 1-(7-oxabicyclo[2.2.1]heptan-1-ylmethyl)-2-(4-(6-((4-cyano-2-fluorobenzyl)oxy)pyridin-2-yl)-2-fluorobenzyl)-1H-benzo[d]imidazole-6-carboxylic acid] | 8.17 | 35.4
9 | COCCn1c(Cc2ccc(-c3cccc(OCc4ccc(C#N)cc4F)n3)cc2C#CC2(C)COC2)nc2ccc(C(=O)O)cc21 [Example 232, 2-(4-(6-((4-cyano-2-fluorobenzyl)oxy)pyridin-2-yl)-2-((3-methyloxetan-3-yl)ethynyl)benzyl)-1-(2-methoxyethyl)-1H-benzo[d]imidazole-6-carboxylic acid] | 18.7 | 17.8
10 | COc1cc(Cl)ccc1COc1nccc(-c2ccc(Cc3nc4ccc(C(=O)O)nc4n3CC3(CF)CC3)cc2F)n1 [Example 233, 2-(4-(2-((4-chloro-2-methoxybenzyl)oxy)pyrimidin-4-yl)-3-fluorobenzyl)-3-((1-(fluoromethyl)cyclopropyl)methyl)-3H-imidazo[4,5-b]pyridine-5-carboxylic acid] | 10.3 | 1.35
11 | COCCn1c(Cc2ccc(-c3cccc(OCc4ccc(C#N)cc4OC(F)F)n3)cc2F)nc2ccc(C(=O)O)cc21 [Example 234, 2-(4-(6-((4-cyano-2-(difluoromethoxy)benzyl)oxy)pyridin-2-yl)-2-fluorobenzyl)-1-(2-methoxyethyl)-1H-benzo[d]imidazole-6-carboxylic acid] | <1.83 | 6.95

The remaining lines, values ahead:

Row | Predicted Hepatic Clearance (Pred. Cl.) [1] [mL/min/kg] | EC50 [2] [nM] | SMILES
12 | 8.42 | 317 | COCCn1c(Cc2ccc(-c3cccc(OCc4csc(C#N)c4)n3)cc2F)nc2ccc(C(=O)O)cc21 [Example 235, 2-(4-(6-((5-cyanothiophen-3-yl)methoxy)pyridin-2-yl)-2-fluorobenzyl)-1-(2-methoxyethyl)-1H-benzo[d]imidazole-6-carboxylic acid]
13 | <1.83 | 306 | COCCn1c(Cc2ccc(-c3cccc(OCc4ccc(C#N)cc4OCC(F)(F)F)n3)cc2F)nc2ccc(C(=O)O)cc21 [Example 236, 2-(4-(6-((4-cyano-2-(2,2,2-trifluoroethoxy)benzyl)oxy)pyridin-2-yl)-2-fluorobenzyl)-1-(2-methoxyethyl)-1H-benzo[d]imidazole-6-carboxylic acid]
14 | 11.2 | 19.2 | COCCn1c(Cc2ccc(-c3cccc(OCc4ccc(C#N)cc4F)n3)cc2C#Cc2ccccc2)nc2ccc(C(=O)O)cc21 [Example 237, 2-(4-(6-((4-cyano-2-fluorobenzyl)oxy)pyridin-2-yl)-2-(phenylethynyl)benzyl)-1-(2-methoxyethyl)-1H-benzo[d]imidazole-6-carboxylic acid]
15 | 8.67 | 12 | CCOc1cc(C#N)ccc1COc1cccc(-c2ccc(Cc3nc4ccc(C(=O)O)cc4n3CCOC)c(F)c2)n1 [Example 238, 2-(4-(6-((4-cyano-2-ethoxybenzyl)oxy)pyridin-2-yl)-2-fluorobenzyl)-1-(2-methoxyethyl)-1H-benzo[d]imidazole-6-carboxylic acid]
16 | <1.83 | 7.49 | COCCn1c(Cc2ccc(-c3cccc(OCc4ccc(C#N)cc4F)n3)cc2Br)nc2ccc(C(=O)O)cc21 [Example 239, 2-(2-bromo-4-(6-((4-cyano-2-fluorobenzyl)oxy)pyridin-2-yl)benzyl)-1-(2-methoxyethyl)-1H-benzo[d]imidazole-6-carboxylic]
17 | 13.7 | 6.82 | COCCn1c(Cc2ccc(-c3cccc(OCc4ccc(C#N)cc4F)n3)cc2C#CC2(CO)CC2)nc2ccc(C(=O)O)cc21 [Example 240, 2-(4-(6-((4-cyano-2-fluorobenzyl)oxy)pyridin-2-yl)-2-((1-(hydroxymethyl)cyclopropyl)ethynyl)benzyl)-1-(2-methoxyethyl)-1H-benzo[d]imidazole-6-carboxylic acid]
18 | 9.83 | 35.1 | COCCn1c(Cc2ccc(-c3cccc(OCc4cccc5c4OCCC5)n3)cc2F)nc2ccc(C(=O)O)cc21 [Example 241, 2-(4-(6-(chroman-8-ylmethoxy)pyridin-2-yl)-2-fluorobenzyl)-1-(2-methoxyethyl)-1H-benzo[d]imidazole-6-carboxylic acid]
19 | <1.83 | 18.4 | CCn1c(Cc2ccc(-c3cccc(OCc4ccc(C#N)cc4F)n3)cc2F)nc2ccc(C(=O)O)cc21 [Example 242, 2-(4-(6-((4-cyano-2-fluorobenzyl)oxy)pyridin-2-yl)-2-fluorobenzyl)-1-ethyl-1H-benzo[d]imidazole-6-carboxylic acid]
20 | 10.2 | 0.88 | COCCn1c(Cc2ccc(-c3cccc(OCc4ccc(C#N)cc4OC)n3)cc2F)nc2ccc(C(=O)O)cc21 [Example 243, 2-(4-(6-((4-cyano-2-methoxybenzyl)oxy)pyridin-2-yl)-2-fluorobenzyl)-1-(2-methoxyethyl)-1H-benzo[d]imidazole-6-carboxylic acid]
21 | 5.67 | 159 | COCCn1c(Cc2ccc(-c3cccc(OCc4ccc(Cl)cc4OCC(F)F)n3)cc2F)nc2ccc(C(=O)O)cc21 [Example 244, 2-(4-(6-((4-chloro-2-(2,2-difluoroethoxy)benzyl)oxy)pyridin-2-yl)-2-fluorobenzyl)-1-(2-methoxyethyl)-1H-benzo[d]imidazole-6-carboxylic acid]
22 | 4.5 | 140 | COCCn1c(Cc2ccc(-c3cccc(OCc4ccc(C#N)cc4OCC(F)F)n3)cc2F)nc2ccc(C(=O)O)cc21 [Example 245, 2-(4-(6-((4-cyano-2-(2,2-difluoroethoxy)benzyl)oxy)pyridin-2-yl)-2-fluorobenzyl)-1-(2-methoxyethyl)-1H-benzo[d]imidazole-6-carboxylic acid]
23 | 4.67 | 1110 | COCCn1c(Cc2ccc(-c3cccc(OC4CCOc5cc(C#N)ccc54)n3)cc2F)nc2ccc(C(=O)O)cc21 (centres unmarked) [Example 246, 2-(4-(6-((7-cyanochroman-4-yl)oxy)pyridin-2-yl)-2-fluorobenzyl)-1-(2-methoxyethyl)-1H-benzo[d]imidazole-6-carboxylic acid]
24 | 6.83 | 2.2 | COCCn1c(Cc2ccc(-c3cccc(OCc4ccc(Cl)cc4OC)n3)cc2F)nc2ccc(C(=O)O)cc21 [Example 247, 2-(4-(6-((4-chloro-2-methoxybenzyl)oxy)pyridin-2-yl)-2-fluorobenzyl)-1-(2-methoxyethyl)-1H-benzo[d]imidazole-6-carboxylic acid]
25 | 17.8 | 3560 | COCCn1c(Cc2ccc(-c3cccc(OCc4ccccc4SC(F)(F)F)n3)cc2F)nc2ccc(C(=O)O)cc21 [Example 248, 2-(2-fluoro-4-(6-((2-((trifluoromethyl)thio)benzyl)oxy)pyridin-2-yl)benzyl)-1-(2-methoxyethyl)-1H-benzo[d]imidazole-6-carboxylic acid]

From US11702404B2, “GLP-1R modulating compounds” (priority 2019, dated 2023)
